Where “and” joins values, the source holds several entries; their conditions need not be identical. Equal entries are not always repeated.
Experiments:
[1] = Stability testing of steroids and NSAIDS combined with 0.6% povidone iodine at room temperature
Experimental: Steroids and NSAIDS were mixed with PVP-I at the concentration of 0.6% w/w on Day 1. The resultant mixtures will be split to glass vials and stored at room temperature. fluorometholone alcohol, medrysone, prednisone sodium phosphate, rimexolone, hydrocortisone, hydrocortisone acetate, lodoxamide tromethamine, nepafenac, bromfenac, and ketorolac. Testing timepoints included day 0 (Time Zero), and week 4. Tests were conducted at room temperature. The testing samples were analyzed using liquid chromatography and tandem mass spectrometry (LC/MS/MS) methods at Day 0, and Week 4. The steroids and NSAIDS standards were also analyzed and steroids and NSAIDS levels in testing samples were determined.
For Tables VIII-XIII, a: Nominal concentration in HPLC samples; b: Calculated concentration in HPLC samples; c: Dilution factor; d: Calculated concentration in stability samples; e: Spiked 50 μL of H2O and stored at room temperature without PVP-I.

[2] = Stability testing of steroids combined with povidone iodine (PVP-I, 0.4%), HPLC/UV with LC-MS/MS confirmation; conditions: for degradation products observed: two week and/or one month samples in the presence of PVP-I 0.4%
Experimental: PVP-I was prepared in water at the concentration of 100 mg/mL (10%). One milliliter of the solution, suspension, or emulsion was mixed with 40 μL of 10% PVP-I in 1.5 mL amber glass vials, followed by storage under both room temperature and 40° C. for 2 weeks and one month. The resultant samples in the presence of PVP-I were analyzed using HPLC. The four steroid levels were measured against the reference standard samples stored under room temperature in the absence of PVP-I (0.4%).
Weigh 1 g of PVP-I and dissolve in 10 mL of water.
Aliquot 1 mL of ophthalmic solution (USP, 0.1%) into eight amber HPLC vials to give the following samples:
Used the resultant samples as time zero samples for HPLC analysis.
The same as Method 1 except the gradient was changed as follows: […]
The software provided with the HPLC system (LCSolution™ software, version 1.23, installed by SHIMADZU) was used to integrate the peak area.
The measured peak area was converted into concentrations (μg/mL) using the following equation: […]
HPLC Methods: The same as HPLC Method 1, 2, and 3 under Section 2.4.
The Day 0, Two Week, and One Month stability test samples were analyzed with reference standard samples (stored at room temperature in the absence of PVP I) using HPLC Method 1. The sample in the absence of PVP-I with the same concentration of dexamethasone phosphate as those stability samples at the presence of PVP-I was stored in the same stability chamber at 40° C. for one month as control sample. The control sample was analyzed under the same conditions. The concentrations of dexamethasone phosphate in the stability samples were calculated. The HPLC/UV chromatograms of all reference standards and stability testing samples are depicted in FIG. 6 to FIG. 13.
(§1) The Day 0, Two Week, and One Month stability test samples were analyzed with reference standard samples (stored at room temperature in the absence of PVP I) using HPLC Method 2. The sample in the absence of PVP-I with the same concentration of prednisolone acetate as those stability samples at the presence of PVP-I was stored in the same stability chamber at 40° C. for two week and one month as control samples. The control samples were analyzed under the same conditions. The concentrations of prednisolone acetate in the stability samples were calculated. The data were summarized in Table V. The HPLC/UV chromatograms of all reference standards and stability testing samples are depicted in FIG. 18 to FIG. 23.
as §1, with “3.” for “2.”, “loteprednol etabonate” for “prednisolone acetate”, “calculated.” for “calculated. The data were summarized in Table V.”, “28” for “18”, “33.” for “23.”
as §1, with “3.” for “2.”, “difluprednate” for “prednisolone acetate”, “calculated.” for “calculated. The data were summarized in Table V. The HPLC/UV chromatograms of all reference standards and stability testing samples are depicted in FIG. 18 to FIG. 23.”

[3] = Day 0, room temperature, 0.6% PVP-I, mean of replicates
[4] = Day 0, room temperature, 0.6% PVP-I, single replicates
[5] = four weeks control, spiked 50 μL of H2O, room temperature without PVP-I
[6] = four weeks, room temperature, 0.6% PVP-I, mean of replicates
[7] = four weeks, room temperature, 0.6% PVP-I, single replicates
[8] = 2 weeks, 40° C., with PVP-I 0.4%
[9] = 2 weeks, room temp, with PVP-I 0.4%
[10] = one month, 40° C., with PVP-I 0.4%, mean of two runs
[11] = one month, 40° C., with PVP-I 0.4%, single samples
[12] = one month, room temp, with PVP-I 0.4%
[13] = 2 weeks, 40° C. control, stored without PVP-I
[14] = Day 0, room temp, with PVP-I 0.4%, mean of replicates
[15] = Day 0, room temp, with PVP-I 0.4%, single replicates
[16] = one month, 40° C. control, stored without PVP-I

Structure (SMILES) | % of Std [1, 3] | % of Std [1, 4] | % of Day 0 [1, 5] | % of Std [1, 5] | % of Day 0 [1, 6] | % of Std [1, 6] | % of Day 0 [1, 7] | % of Std [1, 7] | % of Day 0 [2, 8] | % of Day 0 [2, 9] | % of Day 0 [2, 11] | % of Day 0 [2, 12] | also measured
Nc1c(CC(=O)O)cccc1C(=O)c1ccc(Br)cc1 [Bromfenac, bromfenac] | 98.86% | 99.74% and 97.96% | 101.19% | 100.03% | 99.37% | 98.23% | 100.01% and 98.73% | 98.87% and 97.6% | – | – | – | – | –
C[C@@H]1C[C@H]2[C@@H]3CCC4=CC(=O)C=C[C@]4(C)[C@@]3(F)[C@@H](O)C[C@]2(C)[C@@]1(O)C(=O)COP(=O)([O-])[O-].[Na+].[Na+] [Dexamethasone Sodium Phosphate] | – | – | – | – | – | – | – | – | 84.57% | 83.04% | 84.42% and 83.76% | 84.24% | stability in the presence of PVP-I (result in words) ([2]; PVP-I 0.4%, room temperature and 40° C., up to one month): not stable; % of Day 0 [2, 10]: 84.09%; % of Std [2, 10]: 87.00%; degradation products observed [2]: three additional peaks; degradation products observed ([2]; listed as dexamethasone phosphate): Three degradation products (D1, D2, and D3) were observed
CCCC(=O)O[C@]1(C(=O)COC(C)=O)CC[C@H]2[C@@H]3C[C@H](F)C4=CC(=O)C=C[C@]4(C)[C@@]3(F)[C@@H](O)C[C@@]21C [Difluprednate] | – | – | – | – | – | – | – | – | 99.30% | 103.23% | 100.24% | 104.47% | % of Day 0 [2, 13]: 89.50%; % of Std [2, 13]: 89.50%; % of Std [2, 8]: 95.57%; % of Std [2, 9]: 99.36%; % of Std [2, 14]: 96.25%; % of Std [2, 15]: 95.78% and 96.72%; % of Day 0 [2, 16]: 97.86%; % of Std [2, 16]: 97.86%; % of Std [2, 11]: 96.48%; % of Std [2, 12]: 100.56%
CC(=O)[C@@]1(O)CC[C@H]2[C@@H]3C[C@H](C)C4=CC(=O)C=C[C@]4(C)[C@@]3(F)[C@@H](O)C[C@@]21C [Fluorometholone, fluorometholone] | 101.28% | 101.42% and 101.14% | 97.97% | 99.22% | 98.44% | 99.7% | 98.03% and 98.87% | 99.28% and 100.14% | – | – | – | – | –
CC(=O)OCC(=O)[C@@]1(O)CC[C@H]2[C@@H]3CCC4=CC(=O)CC[C@]4(C)[C@H]3[C@@H](O)C[C@@]21C [Hydrocortisone acetate, hydrocortisone acetate] | 100.57% | 101.62% and 99.52% | 101.08% | 101.66% | 100.95% | 101.53% | 100.58% and 101.33% | 101.15% and 101.91% | – | – | – | – | –
CCOC(=O)O[C@]1(C(=O)OCCl)CC[C@H]2[C@@H]3CCC4=CC(=O)C=C[C@]4(C)[C@H]3[C@@H](O)C[C@@]21C [Loteprednol Etabonate] | – | – | – | – | – | – | – | – | 100.07% | 101.43% | 96.02% | 100.72% | % of Day 0 [2, 13]: 101.69%; % of Std [2, 13]: 101.69%; % of Std [2, 8]: 100.54%; % of Std [2, 9]: 101.91%; % of Std [2, 14]: 100.48%; % of Std [2, 15]: 101.00% and 99.95%; % of Day 0 [2, 16]: 97.64%; % of Std [2, 16]: 97.64%; % of Std [2, 11]: 96.48%; % of Std [2, 12]: 101.20%
NC(=O)Cc1cccc(C(=O)c2ccccc2)c1N [Nepafenac, nepafenac] | 98.7% | 98.22% and 99.18% | 100.06% | 98.76% | 97.2% | 95.94% | 97.83% and 96.58% | 96.56% and 95.32% | – | – | – | – | –
CC(=O)OCC(=O)[C@@]1(O)CC[C@H]2[C@@H]3CCC4=CC(=O)C=C[C@]4(C)[C@H]3[C@@H](O)C[C@@]21C [Prednisolone Acetate] | – | – | – | – | – | – | – | – | 96.60% | 99.24% | 96.79% | 95.66% | % of Day 0 [2, 13]: 100.74%; % of Std [2, 13]: 100.74%; % of Std [2, 8]: 101.08%; % of Std [2, 9]: 103.84%; % of Std [2, 14]: 104.64%; % of Std [2, 15]: 104.83% and 104.45%; % of Day 0 [2, 16]: 100.29%; % of Std [2, 16]: 100.29%; % of Std [2, 11]: 101.28%; % of Std [2, 12]: 100.10%
C[C@]12C=CC(=O)C=C1CC[C@@H]1[C@@H]2C(=O)C[C@@]2(C)[C@H]1CC[C@]2(O)C(=O)COP(=O)([O-])[O-].[Na+].[Na+] [Prednisone sodium phosphate, prednisone sodium phosphate] | 97.76% | 97.93% and 97.59% | 102.87% | 100.57% | 95.66% | 93.52% | 95.1% and 96.23% | 92.97% and 94.07% | – | – | – | – | –
CCC(=O)[C@@]1(C)[C@H](C)C[C@H]2[C@@H]3CCC4=CC(=O)C=C[C@]4(C)[C@H]3[C@@H](O)C[C@@]21C [Rimexolone, rimexolone] | 99.67% | 98.83% and 100.5% | 97.41% | 97.09% | 99.88% | 99.55% | 100.23% and 99.53% | 99.9% and 99.2% | – | – | – | – | –
N#Cc1cc(NC(=O)C(=O)O)c(Cl)c(NC(=O)C(=O)O)c1.NC(CO)(CO)CO.NC(CO)(CO)CO [lodoxamide, lodoxamide tromethamine] | – | – | – | – | – | – | – | – | – | – | – | – | stability in PVP-I (result in words) ([1]; 0.6% PVP-I, room temperature, week 4): appeared to be stable

From patent US20150038473A1, “STABLE POVIDONE-IODINE COMPOSITIONS WITH STEROIDS OR NON-STEROIDAL ANTI-INFLAMMATORIES” (FORESIGHT BIOTHERAPEUTICS, INC., priority 2011, published 2015)
